Laboratory results taken from patent USRE33024E, “Bronchodilating 8-hydroxy-5-(1R)-1-hydroxy-2-(N-((1R)-2-(p-methoxyphenyl)-1-methylethyl) -amino)ethyl) carbostyril and intermediates thereof” (Tanabe Seiyaku Co. Ltd., priority 1983, dated 1989).
Structures can show the parent of a compound that is named as a salt.

Tests used:
[1] = test system: antigen-induced bronchoconstriction; test: Inhibitory effect on antigen-induced bronchoconstriction (Konzett-Rossler method); assay type: in vivo, guinea pig (Male Hartley); settings: Cavia porcellus, iv; i.v. one minute before ovalbumin challenge (30 μg/kg, i.v.); passively sensitized guinea pigs
Experimental: Inhibitory effect on antigen-induced bronchoconstriction
Male Hartley guinea pigs (body weight: 280-520 g) were passively sensitized by intravenous injection of rabbit antiserum against ovalbumin (0.2 ml/100 g of body weight, PCA titer: ×1000), 24 hours later, the animals were anesthetized with α-chloralose (120 mg/kg, i.v.) and immobilized with gallamine triethiodide (5 mg/kg, i.v.) under artificial respiration. Lung volume changes were measured as overflow of air from the lung by the Konzett-Rossler method (cf. Arch. Exp. Pathol. Pharmakol., 195, 71 (1940)). The test compound was administered intravenously to the animals one minute before said animals were challenged with ovalbumin (30 μg/kg, i.v.). The ED50 (i.e., the dose of the test compound which is necessary to produce 50% reduction of antigen-induced bronchoconstruction) was estimated from the dose-response curve.

[2] = in vivo; settings: mouse, iv
Experimental: (§1) A test compound was dissolved in 5% glucose solution, and the test compound solution (0.2 ml/10 g of body weight) was administered intravenously to Male ddY strain mice (body weight: 25-28 g). The LD50 of the test compound was estimated by the Up and Down method.

[3] = test system: isolated tracheal muscle preparations of Male Hartley guinea pigs; test: Bronchodilating activity: relaxation of histamine-induced contraction of isolated tracheal muscle preparations (Magnus' method); parameters: species or system guinea pig (Male Hartley)
Experimental: Isolated tracheal muscle preparations of Male Hartley guinea pigs (body weight: 430-645 g) were used to estimate the bronchodilating activity of a test compound according to Magnus' method. The preparation was suspended in an organ bath filled with 20 ml of Tyrode's solution (37° C.), and said solution was continuously bubbled with air. Histamine 2HCl was added to the bath (final concentration; 1×10^-5 g/ml) and the test compound was added thereto about 15 minutes after the addition of histamine 2HCl. Tension changes in the tracheal smooth muscle were recorded isometrically with a force-displacement transducer. Molar conentration of the test compound which produced 50% relaxation of the histamine-induced tracheal contraction were estimated from the concentration-response curve, and the potency ratio of the test compound to Isoproterenol was calculated therefrom.

[4] = test system: Male ddY strain mice; test: Acute toxicity (Up and Down method); settings: mouse, in vivo
Experimental: as §1

| Compound | ED50 [1] [µg/kg] | LD50 [2] [mg/kg] | bronchodilating activity, times as strong as Isoproterenol ([3]; isolated tracheal chains of guinea pigs, versus Isoproterenol) [times] | bronchodilating activity, times as strong as procaterol ([3]; isolated tracheal chains of guinea pigs, versus procaterol) | Potency ratio (to Isoproterenol) ([3]; from molar concentration giving 50% relaxation of histamine-induced tracheal contraction, histamine 2HCl 1×10^-5 g/ml, Tyrode's solution 37° C.) | selectivity ratio [2] | toxicity (in words) [4] |
| --- | --- | --- | --- | --- | --- | --- | --- |
| COc1ccc(C[C@@H](C)NC[C@H](O)c2ccc(O)c3[nH]c(=O)ccc23)cc1 (relative stereo) [Comp. No. 2, 8-hydroxy-5-{1-hydroxy-2-[N-(2-(p-methoxyphenyl)-1-methylethyl)amino]ethyl}carbotyril (α-isomer) hydrochloride] | 0.18 | 91.3 | – | – | – | – | – |
| COc1ccc(C[C@@H](C)NC[C@H](O)c2ccc(O)c3[nH]c(=O)ccc23)cc1.Cl [Comp. No. 1, 8-hydroxy-5-{(1R)-1-hydroxy-2-[N-((1R)-2-(p-methoxyphenyl)-1-methylethyl)amino]ethyl}carbostyril hydrochloride] | – | 84.6 | ~100 | about 10 times | – | – | – |
| CCC(NC(C)C)C(O)c1ccc(O)c2[nH]c(=O)ccc12 (stereo not shown) [Procaterol, 8-hydroxy-5-[1-hydroxy-2-(isopropylamino)butyl]carbostyril hydrochloride hemihydrate, reference compound] | 0.64 | 70.3 | – | – | 17 | 110000 | – |
| COc1ccc(CC(C)NCC(O)c2ccc(O)c3[nH]c(=O)ccc23)cc1 (stereo not shown) [compound (I)] | – | – | – | – | – | – | considerably low |
